The Kinase Knowledgebase extract (Sharma et al. 2016)

target: MAPK14 (human) (UniProt Q16539); assay: Inhibition of LPS Stimulated TNF Production by U937 Cells; conditions: not given
Sequence (Q16539 whole entry, looked up): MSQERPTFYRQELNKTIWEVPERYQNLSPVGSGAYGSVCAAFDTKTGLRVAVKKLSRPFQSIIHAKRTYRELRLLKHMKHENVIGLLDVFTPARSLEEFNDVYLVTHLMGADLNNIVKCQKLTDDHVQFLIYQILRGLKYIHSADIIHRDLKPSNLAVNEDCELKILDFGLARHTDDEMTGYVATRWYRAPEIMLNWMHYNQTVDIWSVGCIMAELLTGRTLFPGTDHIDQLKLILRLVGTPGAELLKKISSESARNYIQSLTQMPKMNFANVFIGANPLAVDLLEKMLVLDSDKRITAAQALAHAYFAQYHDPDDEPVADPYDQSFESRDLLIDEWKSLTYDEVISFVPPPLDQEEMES

Row | SMILES | IC50 [nM]
1 | c1cc(-c2c[nH]nc2-c2ccc3c(c2)OCO3)ccn1 | 417
2 | CCN(CC)CCn1cc(-c2ccnc(NCc3ccc(F)cc3)c2)c(-c2ccc(F)cc2)n1 | 700
3 | O=C(NCCCc1[nH]nc(-c2ccc(F)cc2)c1-c1ccncc1)NCCc1c[nH]cn1 | > 1000
4 | COc1cccc(CC(=O)N2CCC(c3[nH]nc(-c4ccc(F)cc4)c3-c3ccncc3)CC2)c1 | 770
5 | O=C(NCc1[nH]nc(-c2ccc(F)cc2)c1-c1ccncc1)c1cccs1 | > 1000
6 | Cn1nc(-c2ccc(F)cc2)c(-c2ccncc2)c1C(O)c1ccccc1 (stereo not given) | 349
7 | O=C(c1ccccc1F)N1CCC(c2[nH]nc(-c3ccc(F)cc3)c2-c2ccncc2)CC1 | 410
8 | CNC(=O)CC[C@H](NC(=O)c1ccccc1F)c1[nH]nc(-c2ccc(F)cc2)c1-c1ccncc1 | > 1000
9 | CCS(=O)(=O)N1CCC(c2[nH]nc(-c3ccc(F)cc3)c2-c2ccncc2)CC1 | 250
10 | Cc1n[nH]c(-c2ccc(F)c(F)c2)c1-c1ccncc1 | 329
11 | Cn1cc(-c2ccnc(CCc3ccc(F)cc3)c2)c(-c2ccc(F)cc2)n1 | 327
12 | CC(C)=CC(=O)NCc1[nH]nc(-c2ccc(F)cc2)c1-c1ccncc1 | 11000
13 | CC(=O)O[C@@H](C)C(=O)NCc1[nH]nc(-c2ccc(F)cc2)c1-c1ccncc1 | 6510

More lines, now with the values ahead:

Row | IC50 [nM] | SMILES
14 | 590 | C[C@H](NS(=O)(=O)/C=C/c1ccccc1)c1[nH]nc(-c2ccc(F)cc2)c1-c1ccncc1
15 | 1780 | COc1ccc(S(=O)(=O)NCc2[nH]nc(-c3ccc(F)cc3)c2-c2ccncc2)cc1
16 | > 1000 | CC(C)(C)c1ccc(S(=O)(=O)NCc2[nH]nc(-c3ccc(F)cc3)c2-c2ccncc2)cc1

same assay, conditions: concentration not given here

Row | SMILES | inhibition [%]
17 | O=S(=O)(c1cccc(C(F)(F)F)c1)N1CCC(c2[nH]nc(-c3ccc(F)cc3)c2-c2ccncc2)CC1 | 10
18 | O=C(NCCCc1[nH]nc(-c2ccc(F)cc2)c1-c1ccncc1)NCc1cccnc1 | 11
19 | CN(C(=O)NCCc1[nH]nc(-c2ccc(F)cc2)c1-c1ccncc1)c1ccccc1 | 41
20 | CN(C)c1ccc(CNC(=O)NCCCc2[nH]nc(-c3ccc(F)cc3)c2-c2ccncc2)cc1 | 15
21 | COc1ccccc1CCNC(=O)Cn1nc(-c2ccc(F)cc2)c(-c2ccncc2)c1C | 36
22 | O=C(NCc1[nH]nc(-c2ccc(F)cc2)c1-c1ccncc1)Nc1ccccc1 | 31
23 | O=C(NCc1[nH]nc(-c2ccc(F)cc2)c1-c1ccncc1)c1c(F)cccc1F | 48
24 | CNC(=O)CC[C@H](NC(=O)c1ccncc1)c1[nH]nc(-c2ccc(F)cc2)c1-c1ccncc1 | 8
25 | Cc1noc(C)c1C(=O)N[C@H](C)c1[nH]nc(-c2ccc(F)cc2)c1-c1ccncc1 | 73
26 | CC(=O)Nc1ccc(S(=O)(=O)NCCc2[nH]nc(-c3ccc(F)cc3)c2-c2ccncc2)cc1 | 24
27 | O=C(Cc1cccc2ccccc12)NCc1[nH]nc(-c2ccc(F)cc2)c1-c1ccncc1 | 21
28 | O=C(CCc1ccccc1)NCc1[nH]nc(-c2ccc(F)cc2)c1-c1ccncc1 | 21
29 | O=C(NCCc1[nH]nc(-c2ccc(F)cc2)c1-c1ccncc1)c1ccc(Cl)cc1 | 29
30 | C[C@@H](NC(=O)C1CCCC1)c1[nH]nc(-c2ccc(F)cc2)c1-c1ccncc1 | 12
31 | O=C(NCc1[nH]nc(-c2ccc(F)cc2)c1-c1ccncc1)C1CCCC1 | 13
32 | CC(C)c1cc(C(C)C)c(C(=O)N[C@H](C)c2[nH]nc(-c3ccc(F)cc3)c2-c2ccncc2)c(C(C)C)c1 | 31
33 | C[C@@H](NC(=O)N1CCOCC1)c1[nH]nc(-c2ccc(F)cc2)c1-c1ccncc1 | 30
34 | C[C@H](NC(=O)c1cc(F)c(F)cc1F)c1[nH]nc(-c2ccc(F)cc2)c1-c1ccncc1 | 43
35 | COc1ccc(OC)c(S(=O)(=O)NCCc2[nH]nc(-c3ccc(F)cc3)c2-c2ccncc2)c1 | 29
36 | Cc1cc(C)c(NC(=O)NCc2[nH]nc(-c3ccc(F)cc3)c2-c2ccncc2)c(C)c1 | 25
37 | COc1ccc(NC(=O)N[C@H](C)c2[nH]nc(-c3ccc(F)cc3)c2-c2ccncc2)c(OC)c1 | 40
38 | O=C(NCc1[nH]nc(-c2ccc(F)cc2)c1-c1ccncc1)c1ccc(F)cc1F | 54

The next lines start with the values.

Row | inhibition [%] | SMILES
39 | 28 | C[C@H](NC(=O)c1ccno1)c1[nH]nc(-c2ccc(F)cc2)c1-c1ccncc1
40 | 88 | C[C@@H](NS(=O)(=O)c1ccc(CNC(=O)c2ccccc2)s1)c1[nH]nc(-c2ccc(F)cc2)c1-c1ccncc1
41 | 91 | C[C@@H](NS(=O)(=O)c1cc(Cl)cc(Cl)c1)c1[nH]nc(-c2ccc(F)cc2)c1-c1ccncc1
42 | 54 | Cc1c(Cl)cccc1S(=O)(=O)N[C@@H](C)c1[nH]nc(-c2ccc(F)cc2)c1-c1ccncc1
43 | 24 | O=S(=O)(NCc1[nH]nc(-c2ccc(F)cc2)c1-c1ccncc1)c1cccc2cnccc12
44 | 19 | C[C@@H](NC(=O)C1CCC1)c1[nH]nc(-c2ccc(F)cc2)c1-c1ccncc1
45 | 32 | C[C@H](NC(=O)c1cc(C(F)(F)F)ccc1F)c1[nH]nc(-c2ccc(F)cc2)c1-c1ccncc1
46 | 36 | C[C@@H](NS(=O)(=O)/C=C/c1ccccc1)c1[nH]nc(-c2ccc(F)cc2)c1-c1ccncc1
47 | 39 | C[C@H](NC(=O)c1ccccc1Br)c1[nH]nc(-c2ccc(F)cc2)c1-c1ccncc1
48 | 29 | C[C@H](NC(=O)c1ccc(C(F)(F)F)cc1)c1[nH]nc(-c2ccc(F)cc2)c1-c1ccncc1
49 | 83 | C[C@@H](NS(=O)(=O)c1cccc(Cl)c1Cl)c1[nH]nc(-c2ccc(F)cc2)c1-c1ccncc1
50 | 54 | C[C@H](NC(=O)N(C)C)c1[nH]nc(-c2ccc(F)cc2)c1-c1ccncc1
51 | 52 | C[C@@H](NC(=O)c1ccc(F)c(F)c1)c1[nH]nc(-c2ccc(F)cc2)c1-c1ccncc1
52 | 90 | O=S(=O)(NCc1[nH]nc(-c2ccc(F)cc2)c1-c1ccncc1)c1cccc(Br)c1
53 | 75 | C[C@H](NS(=O)(=O)c1cccc2cnccc12)c1[nH]nc(-c2ccc(F)cc2)c1-c1ccncc1
54 | 27 | C[C@@H](NC(=O)Nc1cccc(F)c1)c1[nH]nc(-c2ccc(F)cc2)c1-c1ccncc1
55 | 27 | C[C@@H](NC(=O)c1ccno1)c1[nH]nc(-c2ccc(F)cc2)c1-c1ccncc1
56 | 68 | C[C@H](NS(=O)(=O)c1cccc2c(N(C)C)cccc12)c1[nH]nc(-c2ccc(F)cc2)c1-c1ccncc1
57 | 50 | O=S(=O)(NCCc1[nH]nc(-c2ccc(F)cc2)c1-c1ccncc1)c1cc(Cl)cc(Cl)c1O
58 | 39 | C[C@H](NC(=O)c1cccc(Cl)c1)c1[nH]nc(-c2ccc(F)cc2)c1-c1ccncc1
59 | 80 | CC(C)c1ccc(S(=O)(=O)N[C@H](C)c2[nH]nc(-c3ccc(F)cc3)c2-c2ccncc2)cc1
60 | 27 | C[C@@H](NC(=O)N(C)C)c1[nH]nc(-c2ccc(F)cc2)c1-c1ccncc1
61 | 97 | C[C@@H](NS(=O)(=O)c1cccc(C(F)(F)F)c1)c1[nH]nc(-c2ccc(F)cc2)c1-c1ccncc1
62 | 54 | C[C@@H](NS(=O)(=O)c1ccccc1)c1[nH]nc(-c2ccc(F)cc2)c1-c1ccncc1
63 | 81 | C[C@@H](NS(=O)(=O)c1ccccc1C#N)c1[nH]nc(-c2ccc(F)cc2)c1-c1ccncc1
64 | 50 | Cc1cccc(C)c1NC(=O)N[C@H](C)c1[nH]nc(-c2ccc(F)cc2)c1-c1ccncc1
65 | 74 | C[C@@H](NS(=O)(=O)c1cccc2cnccc12)c1[nH]nc(-c2ccc(F)cc2)c1-c1ccncc1
